Common to all, as to type: functional
Test [1] has as its system Mus musculus. The test can be described thus: Neuroprotective activity in Mus musculus Swiss albino (mouse) model assessed as reduction in haloperidol-induced catalepsy at 100 mg/kg, ip administered 30 min before haloperidol challenge measured for 30 to 180 min. Also noted: scale not given: the % may be the effect or the level left. To be noted: route intraperitoneal.
Test [2] deals with Mus musculus. The test can be described thus: Neuroprotective activity in haloperidol-induced catalepsy Mus musculus Swiss albino (mouse) model assessed as mean cumulative descent time at 100 mg/kg, po administered 30 min before haloperidol challenge (reference value: 33 +/- 1.34 min).
Test [3] relates to Mus musculus. Put plainly: Neuroprotective activity in haloperidol-induced catalepsy Mus musculus Swiss albino (mouse) model assessed as mean descent time at 100 mg/kg, po administered 30 min before haloperidol challenge measured at 30 min post challenge.
Test [4] has as its system Mus musculus. Put plainly: Neuroprotective activity in haloperidol-induced catalepsy Mus musculus Swiss albino (mouse) model assessed as mean descent time at 100 mg/kg, po administered 30 min before haloperidol challenge measured at 60 min post challenge.
Test [5] concerns Mus musculus. Put plainly: Neuroprotective activity in haloperidol-induced catalepsy Mus musculus Swiss albino (mouse) model assessed as mean descent time at 100 mg/kg, po administered 30 min before haloperidol challenge measured at 90 min post challenge.
Test [6] has as its system Mus musculus. The test can be described thus: Neuroprotective activity in haloperidol-induced catalepsy Mus musculus Swiss albino (mouse) model assessed as mean descent time at 100 mg/kg, po administered 30 min before haloperidol challenge measured at 120 min post challenge.
Test [7] has as its system Mus musculus. Put plainly: Neuroprotective activity in haloperidol-induced catalepsy Mus musculus Swiss albino (mouse) model assessed as mean descent time at 100 mg/kg, po administered 30 min before haloperidol challenge measured at 150 min post challenge.
For test [8], the system named is Mus musculus. The test can be described thus: Neuroprotective activity in haloperidol-induced catalepsy Mus musculus Swiss albino (mouse) model assessed as mean descent time at 100 mg/kg, po administered 30 min before haloperidol challenge measured at 180 min post challenge.

As to `S=C(Nc1ccccc1)Nc1nc2c(ccc3ccccc32)s1`, the Activity in the test with Mus musculus [1] stood at 44.63%. Besides, the Time came out at 14.7 min in the test on Mus musculus [2]; 65 s in the test on Mus musculus [3]; 129 s in the test with Mus musculus [4]; 151 s in the test on Mus musculus [5]; 178 s in the test on Mus musculus [6]; 174 s with Mus musculus [7]. For the same compound, in the test on Mus musculus [8], the Time was 182 s.

Consider `O=C(Nc1nc2c(ccc3ccccc32)s1)Nc1ccccc1[N+](=O)[O-]`, for which, in the test with Mus musculus [1], the Activity came out at 72.05%. For the same compound, the Time with Mus musculus [2] was found to be 7.67 min; in the test on Mus musculus [3] it was 19 s; in the test on Mus musculus [4], 54 s; with Mus musculus [5], 57 s; with Mus musculus [6], 87 s; with Mus musculus [7], 98 s. Also, the Time in the test with Mus musculus [8] worked out at 145 s.

Turning to `O=C(Nc1ccc([N+](=O)[O-])cc1)Nc1nc2c(ccc3ccccc32)s1`, the Activity in the test on Mus musculus [1] turned out to be 31.28%. Also, the Time worked out at 18.1 min in the test with Mus musculus [2]; 51 s in the test on Mus musculus [3]; 113 s in the test on Mus musculus [4]; 176 s in the test with Mus musculus [5]; 229 s with Mus musculus [6]; 245 s with Mus musculus [7]. Besides, in the test with Mus musculus [8], the Time was 269 s.

In the case of `O=C(Nc1nc2c(ccc3ccccc32)s1)Nc1ccccc1Br`, the Activity with Mus musculus [1] was 38.74%. Also, the Time is 16.1 min in the test on Mus musculus [2]; 77 s in the test with Mus musculus [3]; 131 s with Mus musculus [4]; 145 s with Mus musculus [5]; 197 s in the test with Mus musculus [6]; 219 s with Mus musculus [7]. Also, the Time in the test with Mus musculus [8] is 200 s.

Turning to `Cc1ccc(NC(=O)Nc2nc3c(ccc4ccccc43)s2)cc1`, the Activity in the test with Mus musculus [1] came to 48.56%. Besides, the Time in the test on Mus musculus [2] is 13.7 min; in the test with Mus musculus [3], 69 s; in the test with Mus musculus [4] it was 113 s; in the test with Mus musculus [5], 137 s; in the test with Mus musculus [6], 161 s; in the test with Mus musculus [7] it was 168 s. The Time with Mus musculus [8] is 171 s.

On to `S=C(Nc1nc2c(ccc3ccccc32)s1)Nc1ccccc1Cl`, for which the Activity in the test on Mus musculus [1] is recorded as 39.14%. In addition, the Time in the test on Mus musculus [2] came to 16.1 min; in the test with Mus musculus [3], 69 s; with Mus musculus [4], 156 s; with Mus musculus [5], 173 s; in the test with Mus musculus [6] it was 190 s; with Mus musculus [7], 189 s. Also, in the test with Mus musculus [8], the Time came to 186 s.

Consider `O=C(Nc1nc2c(ccc3ccccc32)s1)Nc1cc(C(F)(F)F)ccc1Cl`, for which the Activity in the test with Mus musculus [1] worked out at 51.37%. For the same compound, the Time in the test with Mus musculus [2] amounted to 12.9 min; in the test on Mus musculus [3], 67 s; with Mus musculus [4] it was 114 s; with Mus musculus [5] it was 141 s; in the test on Mus musculus [6] it was 156 s; in the test on Mus musculus [7] it was 150 s. Further, the Time with Mus musculus [8] turned out to be 148 s.

`COc1cc(NC(=O)Nc2nc3c(ccc4ccccc43)s2)cc(OC)c1OC`: in the test on Mus musculus [1], the Activity came out at 70.29%. Moreover, the Time in the test on Mus musculus [2] stood at 8.12 min; with Mus musculus [3], 29 s; in the test with Mus musculus [4] it was 68 s; with Mus musculus [5] it was 85 s; in the test with Mus musculus [6], 89 s; in the test on Mus musculus [7], 107 s. For the same compound, the Time with Mus musculus [8] was 109 s.

As to `S=C(Nc1nc2c(ccc3ccccc32)s1)Nc1ccccc1Br`, the Activity in the test on Mus musculus [1] turned out to be 30.96%. Also, the Time with Mus musculus [2] worked out at 18.1 min; in the test with Mus musculus [3], 83 s; in the test on Mus musculus [4], 160 s; in the test with Mus musculus [5] it was 189 s; in the test with Mus musculus [6] it was 207 s; with Mus musculus [7], 223 s. For the same compound, the Time in the test with Mus musculus [8] worked out at 226 s.

As to `O=C(Nc1nc2c(ccc3ccccc32)s1)Nc1ccccc1Cl`, in the test on Mus musculus [1], the Activity was determined as 37.37%. Moreover, the Time with Mus musculus [2] is 16.5 min; in the test with Mus musculus [3] it was 59 s; in the test on Mus musculus [4], 141 s; with Mus musculus [5], 159 s; in the test on Mus musculus [6], 188 s; in the test with Mus musculus [7] it was 211 s. For the same compound, in the test with Mus musculus [8], the Time turned out to be 232 s.

For `Cc1ccccc1NC(=O)Nc1nc2c(ccc3ccccc32)s1`, in the test on Mus musculus [1], the Activity worked out at 47.64%. Moreover, the Time in the test on Mus musculus [2] amounted to 13.9 min; in the test on Mus musculus [3], 71 s; in the test with Mus musculus [4] it was 116 s; in the test on Mus musculus [5], 138 s; in the test with Mus musculus [6], 166 s; in the test with Mus musculus [7] it was 170 s. Further, in the test on Mus musculus [8], the Time was found to be 172 s.

As for `O=C(Nc1ccccc1)Nc1nc2c(ccc3ccccc32)s1`, in the test with Mus musculus [1], the Activity came to 44.44%. Also, the Time turned out to be 14.7 min in the test on Mus musculus [2]; 72 s in the test on Mus musculus [3]; 132 s with Mus musculus [4]; 156 s in the test on Mus musculus [5]; 174 s with Mus musculus [6]; 172 s in the test with Mus musculus [7]. For the same compound, in the test with Mus musculus [8], the Time is 176 s.

Take `O=[N+]([O-])c1ccc(NC(=S)Nc2nc3c(ccc4ccccc43)s2)cc1`: in the test with Mus musculus [1], the Activity was 32.13%. The Time in the test with Mus musculus [2] was determined as 17.8 min; in the test on Mus musculus [3], 77 s; in the test on Mus musculus [4] it was 178 s; in the test on Mus musculus [5] it was 199 s; in the test with Mus musculus [6], 201 s; with Mus musculus [7], 207 s. For the same compound, the Time with Mus musculus [8] came to 208 s.

`N[C@@H](Cc1ccc(O)c(O)c1)C(=O)O` [LEVODOPA]: in the test on Mus musculus [1], the Activity worked out at 65.64%. Moreover, the Time in the test with Mus musculus [2] is 9.3 min; in the test with Mus musculus [3] it was 32 s; in the test with Mus musculus [4], 49 s; in the test with Mus musculus [5], 99 s; with Mus musculus [6], 119 s; with Mus musculus [7], 122 s. Besides, the Time in the test on Mus musculus [8] turned out to be 137 s.

As for `Fc1ccccc1NC(=S)Nc1nc2c(ccc3ccccc32)s1`, the Activity in the test on Mus musculus [1] is reported as 38.35%. The Time in the test on Mus musculus [2] stood at 16.2 min; in the test with Mus musculus [3], 57 s; in the test on Mus musculus [4], 143 s; in the test with Mus musculus [5], 152 s; with Mus musculus [6], 183 s; in the test on Mus musculus [7], 206 s. Besides, the Time in the test with Mus musculus [8] is 234 s.

On to `Cc1ccc(NC(=S)Nc2nc3c(ccc4ccccc43)s2)cc1`, for which, in the test on Mus musculus [1], the Activity is recorded as 47.97%. Also, the Time with Mus musculus [2] worked out at 13.8 min; in the test on Mus musculus [3] it was 72 s; in the test on Mus musculus [4], 114 s; with Mus musculus [5], 136 s; with Mus musculus [6] it was 161 s; in the test on Mus musculus [7] it was 173 s. Further, the Time in the test on Mus musculus [8] is 172 s.

As to `S=C(Nc1ccc(Cl)cc1)Nc1nc2c(ccc3ccccc32)s1`, the Activity with Mus musculus [1] came to 27.88%. In addition, the Time is 18.9 min with Mus musculus [2]; 92 s in the test on Mus musculus [3]; 169 s in the test with Mus musculus [4]; 198 s in the test with Mus musculus [5]; 216 s in the test with Mus musculus [6]; 232 s in the test on Mus musculus [7]. Besides, the Time in the test on Mus musculus [8] is 228 s.

With `COc1ccc(NC(=O)Nc2nc3c(ccc4ccccc43)s2)cc1`, the Activity with Mus musculus [1] worked out at 58.51%. Also, the Time with Mus musculus [2] is 11.1 min; in the test with Mus musculus [3], 41 s; with Mus musculus [4] it was 99 s; with Mus musculus [5] it was 122 s; with Mus musculus [6], 131 s; in the test with Mus musculus [7], 136 s. The Time in the test on Mus musculus [8] stood at 138 s.

`O=C(Nc1ccc(Oc2ccccc2)cc1)Nc1nc2c(ccc3ccccc32)s1`: the Activity with Mus musculus [1] stood at 55.56%. For the same compound, the Time in the test with Mus musculus [2] was determined as 11.9 min; in the test on Mus musculus [3] it was 76 s; in the test on Mus musculus [4], 110 s; with Mus musculus [5], 119 s; in the test with Mus musculus [6], 132 s; with Mus musculus [7] it was 135 s. The Time in the test with Mus musculus [8] is 140 s.

Source of the values: ChEMBL document CHEMBL3045060, “Synthesis of some urea and thiourea derivatives of naphtha[1,2-d]thiazol-2-amine as anti-Parkinsonian agents that cause neuroprotection against haloperidol-induced oxidative stress in mice” (2009).
